Assay results: patent US20250170248A1, “SMARCA DEGRADERS AND USES THEREOF” (Kymera Therapeutics, Inc., priority 2021, published 2025)

Key:
Assay type in all cases: cell-based
SMARCA2 [1] = biological target: T1, SMARCA2 (Homo sapiens, UniProt P51531); experiment: MSD SMARCA2 degradation in A549 cell line; settings: 24 h; for Dmax: A549, A549 cells; for DC50: A549 cells, read-out: SMARCA2 MSD A549 degradation 24 h: Average external-Abs DC50
Procedure, shortened: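 A549 cells treated 24 h with compound, 3-fold series from 1000 nM. Lysates captured on MSD plates and SMARCA2 quantified with anti-SMARCA2 and SULFO-TAG secondary antibodies (electrochemiluminescence). DC50 and Dmax (% degradation at 24 h) reported as letter bins.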

SMARCA4 = biological target: T2, SMARCA4 (Homo sapiens, UniProt P51532); experiment: SMARCA4 Western blot degradation in MV4-11 cells; settings: 24 h; for Dmax: MV4-11, MV4-11 cells, read-out: SMARCA4 MSD MV411 degradation 24 h: average Dmax %; for DC50: MV4-11 cells, read-out: SMARCA4 MSD MV411 degradation 24 h: Mean external-Abs DC50
T2 construct: SMARCA2/SMARCA4 protein degradation selectivity in MV4-11 cells; endogenous in cells; host or cells: MV4-11
T2 sequence (P51532 whole entry): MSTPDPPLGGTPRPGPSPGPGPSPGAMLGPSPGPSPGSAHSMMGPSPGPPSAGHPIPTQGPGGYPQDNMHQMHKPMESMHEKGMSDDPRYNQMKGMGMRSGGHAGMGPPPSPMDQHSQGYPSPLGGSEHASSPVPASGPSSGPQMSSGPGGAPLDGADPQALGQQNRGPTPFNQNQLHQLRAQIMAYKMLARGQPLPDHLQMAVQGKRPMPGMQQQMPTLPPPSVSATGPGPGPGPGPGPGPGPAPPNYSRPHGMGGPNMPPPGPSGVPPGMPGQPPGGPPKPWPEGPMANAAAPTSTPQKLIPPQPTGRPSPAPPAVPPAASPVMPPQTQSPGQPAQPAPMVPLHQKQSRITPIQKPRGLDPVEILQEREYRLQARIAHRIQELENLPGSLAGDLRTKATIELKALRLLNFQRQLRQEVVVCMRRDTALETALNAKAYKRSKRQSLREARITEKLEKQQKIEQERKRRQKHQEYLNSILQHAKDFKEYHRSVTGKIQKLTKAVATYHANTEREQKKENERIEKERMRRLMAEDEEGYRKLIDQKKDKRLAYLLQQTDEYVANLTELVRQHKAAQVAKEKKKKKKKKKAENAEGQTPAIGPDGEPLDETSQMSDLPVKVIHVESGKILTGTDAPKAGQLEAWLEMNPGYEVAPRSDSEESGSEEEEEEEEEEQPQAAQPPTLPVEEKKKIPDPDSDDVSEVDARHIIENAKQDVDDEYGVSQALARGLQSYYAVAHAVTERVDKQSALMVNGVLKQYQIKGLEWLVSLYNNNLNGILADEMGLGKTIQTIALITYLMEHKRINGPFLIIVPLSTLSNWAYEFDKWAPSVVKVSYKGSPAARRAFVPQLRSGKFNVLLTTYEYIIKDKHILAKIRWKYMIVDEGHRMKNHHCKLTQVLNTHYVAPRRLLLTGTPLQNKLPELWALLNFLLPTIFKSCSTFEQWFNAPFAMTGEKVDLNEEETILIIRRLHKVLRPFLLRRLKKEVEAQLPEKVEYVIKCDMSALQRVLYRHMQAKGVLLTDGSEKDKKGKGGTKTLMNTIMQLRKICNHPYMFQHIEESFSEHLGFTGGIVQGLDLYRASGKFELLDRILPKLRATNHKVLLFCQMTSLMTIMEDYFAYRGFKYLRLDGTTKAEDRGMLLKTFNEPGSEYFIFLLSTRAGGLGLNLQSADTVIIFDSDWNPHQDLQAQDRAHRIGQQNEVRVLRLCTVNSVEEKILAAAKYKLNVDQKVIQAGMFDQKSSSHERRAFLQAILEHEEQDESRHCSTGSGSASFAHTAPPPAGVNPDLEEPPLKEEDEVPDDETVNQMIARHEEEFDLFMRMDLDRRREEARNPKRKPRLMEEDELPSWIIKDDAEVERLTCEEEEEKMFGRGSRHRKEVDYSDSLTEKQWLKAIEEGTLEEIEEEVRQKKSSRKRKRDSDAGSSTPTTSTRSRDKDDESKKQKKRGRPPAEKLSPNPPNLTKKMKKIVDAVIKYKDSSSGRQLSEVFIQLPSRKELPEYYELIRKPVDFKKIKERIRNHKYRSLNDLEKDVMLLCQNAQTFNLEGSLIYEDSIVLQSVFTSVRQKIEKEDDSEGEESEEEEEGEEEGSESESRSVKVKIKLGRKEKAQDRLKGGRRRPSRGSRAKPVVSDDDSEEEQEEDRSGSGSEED
Procedure, shortened: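 24 h compound exposure, MV4-11; RIPA lysates → SDS-PAGE → NC membrane; anti-SMARCA2/BRM, anti-BRG1, β-actin loading control; LI-COR fluorescence read. DC50 and Dmax at 24 h reported as letter bins.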

SMARCA2 [2] = biological target: T1, SMARCA2; experiment: SMARCA2 Western blot degradation in MV4-11 cells; parameters: SMARCA2/SMARCA4 protein degradation selectivity in MV4-11 cells; endogenous in cells; host or cells: MV4-11; settings: for Dmax: MV4-11, MV4-11 cells, read-out: SMARCA2 MSD MV411 degradation 24 h: average Dmax %; for Dmax / DC50: 24 h; for DC50 / Selectivity in MV411: MV4-11 cells; for DC50: read-out: SMARCA2 MSD MV411 degradation 24 h: Mean external-Abs DC50; for Selectivity in MV411: SMARCA2/4 selectivity

T1 sequence (P51531 whole entry): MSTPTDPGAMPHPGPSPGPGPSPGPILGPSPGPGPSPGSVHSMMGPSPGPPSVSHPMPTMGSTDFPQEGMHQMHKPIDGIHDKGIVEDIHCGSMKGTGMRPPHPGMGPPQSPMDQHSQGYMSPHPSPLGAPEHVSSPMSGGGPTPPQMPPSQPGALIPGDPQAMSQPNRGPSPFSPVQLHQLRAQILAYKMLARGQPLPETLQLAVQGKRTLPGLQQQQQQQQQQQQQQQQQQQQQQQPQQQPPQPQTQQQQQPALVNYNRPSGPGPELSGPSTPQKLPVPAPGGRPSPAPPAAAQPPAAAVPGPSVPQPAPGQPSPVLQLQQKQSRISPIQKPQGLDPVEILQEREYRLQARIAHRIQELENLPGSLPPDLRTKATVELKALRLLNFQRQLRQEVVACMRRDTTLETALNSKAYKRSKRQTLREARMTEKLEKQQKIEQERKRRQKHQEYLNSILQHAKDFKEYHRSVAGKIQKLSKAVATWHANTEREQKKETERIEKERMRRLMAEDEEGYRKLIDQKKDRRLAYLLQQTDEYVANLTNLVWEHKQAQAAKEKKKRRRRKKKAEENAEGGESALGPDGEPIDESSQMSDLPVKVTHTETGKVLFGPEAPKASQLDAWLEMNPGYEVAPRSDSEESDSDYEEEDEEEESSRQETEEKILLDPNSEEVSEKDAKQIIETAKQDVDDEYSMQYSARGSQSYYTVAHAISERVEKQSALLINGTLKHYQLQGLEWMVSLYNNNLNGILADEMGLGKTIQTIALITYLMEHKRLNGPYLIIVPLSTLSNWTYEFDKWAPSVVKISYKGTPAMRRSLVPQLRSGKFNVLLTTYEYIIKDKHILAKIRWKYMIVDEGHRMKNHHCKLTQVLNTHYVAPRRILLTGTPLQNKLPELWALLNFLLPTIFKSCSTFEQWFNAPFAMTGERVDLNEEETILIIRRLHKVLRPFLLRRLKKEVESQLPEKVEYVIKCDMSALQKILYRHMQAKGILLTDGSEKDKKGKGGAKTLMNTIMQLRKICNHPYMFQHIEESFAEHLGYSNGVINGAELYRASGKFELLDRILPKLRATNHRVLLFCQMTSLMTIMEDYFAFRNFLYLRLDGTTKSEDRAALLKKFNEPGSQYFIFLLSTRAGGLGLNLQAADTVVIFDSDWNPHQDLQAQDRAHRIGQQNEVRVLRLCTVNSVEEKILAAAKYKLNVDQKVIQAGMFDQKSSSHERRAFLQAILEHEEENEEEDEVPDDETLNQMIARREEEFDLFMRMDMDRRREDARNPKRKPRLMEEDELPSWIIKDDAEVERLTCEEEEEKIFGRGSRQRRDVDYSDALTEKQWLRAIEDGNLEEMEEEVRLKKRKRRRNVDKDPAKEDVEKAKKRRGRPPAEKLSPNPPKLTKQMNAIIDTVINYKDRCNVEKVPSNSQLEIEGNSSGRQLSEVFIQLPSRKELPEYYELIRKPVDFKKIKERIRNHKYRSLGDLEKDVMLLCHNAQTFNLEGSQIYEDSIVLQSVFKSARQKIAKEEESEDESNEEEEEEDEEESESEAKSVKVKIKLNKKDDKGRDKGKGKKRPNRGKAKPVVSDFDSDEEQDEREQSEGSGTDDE

SMILES	Dmax (SMARCA2 [1]) [%]	DC50 (SMARCA2 [1]) [nM]	Dmax (SMARCA4) [%]	DC50 (SMARCA4) [nM]	Dmax (SMARCA2 [2]) [%]	DC50 (SMARCA2 [2]) [nM]	Selectivity in MV411 (SMARCA2 [2])
C#Cc1ccc(CNC(=O)[C@@H]2C[C@@H](O)CN2C(=O)[C@@H](NC(=O)C2CC3(C2)CC(N2CCC(N4CCC(N5CCN6c7cc(-c8ccccc8O)nnc7NC[C@H]6C5)CC4)CC2)C3)C(C)(C)C)cc1 (stereo partly drawn) [I-137]	> 90	50 to 100	< 50	> 100	70 to 90	1 to 10	A (A (>500 fold))
C#Cc1ccc(CNC(=O)[C@@H]2C[C@@H](O)CN2C(=O)[C@@H](N(C)C(=O)N2CC3(CC(N4CCC(c5cnc(N6CCc7[nH]c8nnc(-c9ccccc9O)cc8c7[C@H]6C)nc5)CC4)C3)C2)C(C)(C)C)cc1 [I-139]	< 50	> 100	50 to 70	> 100	< 50	> 100	C (C (10-100 fold))
C#Cc1ccc(CNC(=O)[C@@H]2C[C@@H](O)CN2C(=O)[C@@H](N(CCOC)C(=O)N2CC3(CC(N4CCC(c5cnc(N6CCc7[nH]c8nnc(-c9ccccc9O)cc8c7[C@H]6C)nc5)CC4)C3)C2)C(C)(C)C)cc1 [I-140]	< 50	> 100	< 50	> 100	< 50	> 100	C (C (10-100 fold))
C#Cc1ccc(CNC(=O)[C@@H]2C[C@@H](O)CN2C(=O)[C@@H](N(CCN(C)C)C(=O)N2CC3(CC(N4CCC(c5cnc(N6CCc7[nH]c8nnc(-c9ccccc9O)cc8c7[C@H]6C)nc5)CC4)C3)C2)C(C)(C)C)cc1 [I-141]	< 50	> 100	< 50	> 100	< 50	> 100	C (C (10-100 fold))
C#Cc1ccc(CNC(=O)[C@@H]2C[C@@H](O)CN2C(=O)[C@@H](NC(=O)N2CC3(CC(N4CCC(c5cnc(N6CCc7[nH]c8nnc(-c9ccccc9O)cc8c7[C@@H]6CO)nc5)CC4)C3)C2)C(C)(C)C)cc1 [I-147]	> 90	50 to 100	70 to 90	10 to 100	> 90	1 to 10	D (D (<10 fold))
Cc1ncsc1-c1ccc(CNC(=O)[C@@H]2C[C@@H](O)CN2C(=O)[C@@H](NC(=O)[C@H]2CCC3(CC2)C[C@H](N2CCC(c4ccc(N5CCN6c7cc(-c8ccccc8O)nnc7NC[C@H]6C5)nc4)CC2)C3)C(C)(C)C)cc1 (stereo partly drawn) [I-148]	> 90	50 to 100	< 50	> 100	70 to 90	10 to 100	B (B (>100-500 fold))
C#Cc1ccc([C@H](C)NC(=O)[C@@H]2C[C@@H](O)CN2C(=O)[C@@H](OC(=O)N2CC3(CC(N4CCC(c5cnc(N6CCc7[nH]c8nnc(-c9ccccc9O)cc8c7[C@H]6C)nc5)CC4)C3)C2)C(C)(C)C)cc1 [I-150]	> 90	10 to 50	70 to 90	> 100	70 to 90	1 to 10	C (C (10-100 fold))
C#Cc1ccc([C@H](C)NC(=O)[C@@H]2C[C@@H](O)CN2C(=O)[C@@H](NC(=O)N2CC3(CC(N4CCC(c5cnc(N6CCc7[nH]c8nnc(-c9ccccc9O)cc8c7[C@H]6C)nc5)CC4)C3)C2)C(C)(C)C)cc1 [I-151]	> 90	10 to 50	50 to 70	> 100	70 to 90	1 to 10	C (C (10-100 fold))
C#Cc1ccc(CNC(=O)[C@@H]2C[C@@H](O)CN2C(=O)[C@@H](NC(=O)N2CCN(CC3CCN(c4cnc(N5CCc6[nH]c7nnc(-c8ccccc8O)cc7c6[C@H]5C)nc4)CC3)CC2)C(C)(C)C)cc1 [I-159]	> 90	> 100	50 to 70	> 100	50 to 70	10 to 100	B (B (>100-500 fold))
C#Cc1ccc(CNC(=O)[C@@H]2C[C@@H](O)CN2C(=O)[C@@H](NC(=O)N2CCN(CC3CCN(c4cnc(N5CCc6[nH]c7nnc(-c8ccccc8O)cc7c6[C@@H]5C)nc4)CC3)CC2)C(C)(C)C)cc1 [I-160]	> 90	> 100	> 90	> 100	70 to 90	10 to 100	D (D (<10 fold))
C#Cc1ccc(CNC(=O)[C@@H]2C[C@@H](O)CN2C(=O)[C@@H](NC(=O)N2CCN(CC3CCN(c4cnc(N5CCN6c7cc(-c8ccccc8O)nnc7NC[C@H]6C5)nc4)CC3)CC2)C(C)(C)C)cc1 [I-163]	> 90	10 to 50	50 to 70	> 100	70 to 90	< 1	B (B (>100-500 fold))
C#Cc1ccc(CNC(=O)[C@@H]2C[C@@H](O)CN2C(=O)[C@@H](NC(=O)N2CC3(CN(CC4CCN(c5cnc(N6CCc7[nH]c8nnc(-c9ccccc9O)cc8c7[C@H]6C)nc5)CC4)C3)C2)C(C)(C)C)cc1 [I-164]	> 90	> 100	< 50	> 100	70 to 90	10 to 100	B (B (>100-500 fold))
C#Cc1ccc(CNC(=O)[C@@H]2C[C@@H](O)CN2C(=O)[C@@H](NC(=O)N2CC3(CN(CC4CCN(c5cnc(N6CCc7[nH]c8nnc(-c9ccccc9O)cc8c7[C@@H]6C)nc5)CC4)C3)C2)C(C)(C)C)cc1 [I-165]	> 90	> 100	70 to 90	> 100	70 to 90	10 to 100	D (D (<10 fold))

Results, then the compound that gave them:

Dmax (SMARCA2 [1]) [%]	DC50 (SMARCA2 [1]) [nM]	Dmax (SMARCA4) [%]	DC50 (SMARCA4) [nM]	Dmax (SMARCA2 [2]) [%]	DC50 (SMARCA2 [2]) [nM]	Selectivity in MV411 (SMARCA2 [2])	SMILES
> 90	< 10	> 90	10 to 100	> 90	1 to 10	D (D (<10 fold))	C#Cc1ccc(CNC(=O)[C@@H]2C[C@@H](O)CN2C(=O)[C@@H](NC(=O)N2CC3(CC(N4CCC(c5cnc(N6CCc7[nH]c8nnc(-c9ccccc9O)cc8c7[C@H]6C)nc5)CC4)C3)C2)C(C)(C)C)c(OCCCOC)c1 [I-128]
> 90	10 to 50	70 to 90	> 100	70 to 90	1 to 10	C (C (10-100 fold))	C#Cc1ccc(CNC(=O)[C@@H]2C[C@@H](O)CN2C(=O)[C@@H](NC(=O)N2CC3(CC(N4CCC(c5cnc(N6CCc7[nH]c8nnc(-c9ccccc9O)cc8c7[C@H]6CC)nc5)CC4)C3)C2)C(C)(C)C)cc1 [I-136]
> 90	< 10	> 90	10 to 100	> 90	1 to 10	C (C (10-100 fold))	C#Cc1ccc(CNC(=O)[C@@H]2C[C@@H](O)CN2C(=O)[C@@H](OC(=O)N2CC3(CC(N4CCC(c5cnc(N6CCc7[nH]c8nnc(-c9ccccc9O)cc8c7[C@H]6C)nc5)CC4)C3)C2)C(C)(C)C)cc1 [I-138]
> 90	< 10	> 90	10 to 100	> 90	1 to 10	C (C (10-100 fold))	C#Cc1ccc(CNC(=O)[C@@H]2C[C@@H](O)CN2C(=O)[C@@H](NC(=O)N2CC3(CC(N4CCC(c5cnc(N6CCc7[nH]c8nnc(-c9ccccc9O)cc8c7[C@H]6C)nc5)CC4)C3)C2)C(C)(C)C)c(OCCO)c1 [I-143]
> 90	10 to 50	70 to 90	> 100	70 to 90	1 to 10	C (C (10-100 fold))	C#Cc1ccc(CNC(=O)[C@@H]2C[C@@H](O)CN2C(=O)[C@@H](NC(=O)N2CC3(CC(N4CCC(c5cnc(N6CCc7[nH]c8nnc(-c9ccccc9O)cc8c7[C@H]6C)nc5)CC4)C3)C2)C(C)(C)C)c(OCC(=O)O)c1 [I-144]
> 90	10 to 50	> 90	10 to 100	> 90	< 1	C (C (10-100 fold))	C#Cc1ccc(CNC(=O)[C@@H]2C[C@@H](O)CN2C(=O)[C@@H](NC(=O)N2CC3(CC(N4CCC(c5cnc(N6CCc7[nH]c8nnc(-c9ccccc9O)cc8c7[C@H]6C)nc5)CC4)C3)C2)C(C)(C)C)c(OCCCC(=O)O)c1 [I-145]
> 90	< 10	70 to 90	10 to 100	> 90	1 to 10	C (C (10-100 fold))	C#Cc1ccc(CNC(=O)[C@@H]2C[C@@H](O)CN2C(=O)[C@@H](NC(=O)N2CC3(CC(N4CCC(c5cnc(N6CCc7[nH]c8nnc(-c9ccccc9O)cc8c7[C@H]6CO)nc5)CC4)C3)C2)C(C)(C)C)cc1 [I-146]
> 90	< 10	> 90	10 to 100	> 90	1 to 10	C (C (10-100 fold))	C#Cc1ccc(CNC(=O)[C@@H]2C[C@@H](O)CN2C(=O)[C@@H](NC(=O)N2CC3(CC(N4CCC(c5cnc(N6CCc7[nH]c8nnc(-c9ccccc9O)cc8c7[C@H]6C)nc5)CC4)C3)C2)C(C)(C)C)c(O)c1 [I-166]
